{
  "source": "patent US10016414B2",
  "about": "“Modulation of ubiquitination of synaptic proteins for the treatment of neurodegenerative and psychiatric disorders” (UNIVERSITY OF MASSACHUSETTS, priority 2010, dated 2018)",
  "key": {"[1]": {"system": "surface GluA1 (AMPAR) in hippocampal neurons", "experiment": "Aβ-induced AMPAR endocytosis: surface GluA1 in cultured hippocampal neurons", "type": "cell-based, rat", "settings": "for GluA1 surface expression (GluA1 puncta normalized to SV2 puncta and to naïve cultures): 2 hrs, naïve 100%±4%, n=3", "method": "A. Micrograph showing GluA2 surface expression upon Aβ treatment in the presence or absence of Nutlin-3. Rat hippocampal neurons were cultured, and treated with Aβ or Aβ together with either Nutlin-3 (5 μM) or HLI373 (15 μM) for 2 hours. The final concentration of Aβ was 0.3 ng/mL. Naïve and Nutlin-3 and HLI373 treatments, without Aβ treatment, were used as controls. Surface expression of AMPARs was measured by labeling the cultured neurons in vivo with an antibody to the AMPAR subunit GluA1, followed by confocal microscopy and immunofluorescence quantification by MetaMorph. The number of GluA1 puncta was normalized to SV2 puncta (a presynaptic marker) and to the value in control naïve cultures. […] Scale bar=5 μm. B. Bar graph showing quantification of the percentage of surface GluA1 in response to the various treatment described in A. Results are presented as mean±SEM.\nSoluble amyloid beta (Aβ) peptides contribute directly to synapse loss and decreased dendritic spine density and glutamate receptors at the synapse. Moreover, Aβ has been reported to induce AMPAR internalization in cultured neurons. To evaluate the effect of Mdm2 inhibitors on this process, cultured rat hippocampal neurons were treated for 2 hrs with Aβ (or Aβ together with either Nutlin-3 (5 μM) or HLI-373 (15 μM). Aβ can be prepared from 7PA2 Chinese hamster ovary (CHO) cells stably expressing human amyloid precursor protein (APP)751 containing the V717 mutation (Walsh et al., 2005; Shankar et al., 2007; Shankar et al., 2011), and is also available commercially from, e.g., rPeptide (Bogart, G A). The concentration of Aβ in the hippocampal cultures was 0.3 ng/mL. Naïve and Nutlin-3 and HLI-373 treatments were used as controls. Surface expression of AMPARs was measured by labeling the cultured neurons in vivo with an antibody to the AMPAR subunit GluA1, followed by confocal microscopy and immunofluorescence quantification by MetaMorph. The number of GluA1 puncta was normalized to SV2 puncta (a presynaptic marker) and to the value in control naïve cultures (see FIGS. 8A and B).\nMinimum inhibitor concentrations of Nutlin-3a or HLI-373, as well as any other Mdm2 inhibitor identified using the screens described supra, can be readily determined by using different ranges of inhibitor concentrations and assessing the effects of the particular concentrations on surface expression of AMPARs. Similar results are expected with other inhibitors of PSD-95 ubiquitination by Mdm2, such as PSD-95 inhibitors."}, "PSD-95 degradation": {"system": "PSD-95 degradation", "settings": "Colledge et al., 2003; cited from earlier work"}, "3×Tg-AD mice": {"system": "3×Tg-AD mice", "settings": "Martinez-Coria-LaFeria, 2010; cited from earlier work"}, "PSD-95 ubiquitination": {"system": "PSD-95 ubiquitination", "experiment": "PSD-95 ubiquitination in acute forebrain slices (PSD-95 immunoprecipitation, ubiquitin/FK1/FK2 immunoblot)", "type": "cell-based, mouse", "settings": "wild-type slices; NMDA 100 μM, 3 min; 10 min after washout"}, "[2]": {"system": "interaction of β-adaptin with PSD-95", "experiment": "NMDA-dependent interaction of PSD-95 with β-adaptin in acute forebrain slices (co-immunoprecipitation)", "type": "cell-based, mouse", "settings": "NMDA 100 μM, 3 min; for interaction of β-adaptin with PSD-95 (percentage of p53 knockout unstimulated control): n=3", "method": "A. Immunoblot showing that NMDA receptors regulate the interaction of PSD-95 with β-adaptin. Acute forebrain slices from wild-type mice were stimulated with NMDA (100 μM, 3 min) and, after NMDA washout, incubated for additional 5 or 10 min.\nB. Immunoblot showing that genetic deletion of Mdm2 reduces the NMDA-dependent interaction of PSD-95 with β-adaptin. Acute forebrain slices from p53 knockout (control) and Mdm2/p53 double knockout mice were stimulated with NMDA (100 μM, 3 min) and, after NMDA washout, incubated for an additional 5 or 10 min.\nAcute forebrain slices were prepared as previously described (Patel et al., 2003; Zhang et al., 2008). Briefly, brains of adult wild-type, p53 knockout or Mdm2/p53 double knockout mice were isolated, and 300 μm coronal slices of forebrain (within the region corresponding approximately to Bregma −1.0 to −3.5 mm, containing the hippocampus) were prepared using a Vibratome (Leica Microsystems VT1000S) in ice-cold oxygenated artificial cerebrospinal fluid (ACSF: 117 mM NaCl, 1.7 mM KCl, 1.2 mM MgCl2, 2.5 mM CaCl2, 1.2 mM NaH2PO4, 25 mM NaHCO3, 11.5 mM glucose). Slices were preincubated in ACSF for 1 h before treatments and all experiments were conducted at 32° C. in 95% O2 and 5% CO2 incubator. NMDA treatment was conducted by incubating slices with 100 μM NMDA for 3 min in ACSFcLTD (124 mM NaCl, 5 mM KCl, 1.5 mM MgCl2, 2.5 mM CaCl2, 1.25 mM NaH2PO4, 26 mM NaHCO3, 10 mM glucose) (Lee et al., 1998). After agonist washout, the slices were further incubated in ACSF-cLTD for the time indicated (5-10 min). Slice lysates were prepared as previously described (Zhang et al., 2008) and PSD-95 immunoprecipitated from the lysates was analyzed by Western blot and quantified as described above. Values were expressed as mean±S.E.M. and statistically compared using analysis of variance (ANOVA).\nPSD-95 is important for NMDAR-induced endocytosis of synaptic AMPARs (Colledge et al., 2003; Bhattacharyya et al., 2009) and a brief application of NMDA induces both a rapid and transient increase in PSD-95 ubiquitination, which peaks approximately 10 min after the onset of NMDA treatment (Colledge et al., 2003). […] Following a brief (3 min) stimulation with 100 μM NMDA, a treatment that induces AMPAR endocytosis (Bhattacharyya et al., 2009), acute forebrain slices from adult wildtype mice were analyzed at 5 min and 10 min after agonist washout. PSD-95 immunoprecipitated from slice lysates was analyzed for coimmunoprecipitation of β-adaptin and ubiquitination (FIG. 5A).\nTo further investigate whether ubiquitination of PSD-95 promotes the interaction of PSD-95 with β-adaptin, this interaction was investigated in acute brain slices derived from mice with a genetic deletion of the ubiquitin ligase Mdm2. Acute forebrain slices from adult Mdm2/p53 double knockout mice and control p53 knockout mice were analyzed at 5 min and 10 min after NMDA (100 μM, 3 min) washout. The interaction of PSD-95 with β-adaptin was assessed by immunoblot of PSD-95 immunoprecipitated from slice lysates (FIG. 5B)."}, "[3]": {"system": "surface GluA2 (AMPAR) in hippocampal neurons", "experiment": "NMDA-induced AMPAR endocytosis: surface GluA2 by antibody feeding in hippocampal cultures", "type": "cell-based, rat", "settings": "NMDA 100 μM for 3 min", "method": "A. Micrograph showing GluA2 surface expression upon NMDA treatment in the presence or absence of Nutlin-3. Cultured hippocampal neurons were subjected to an antibody feeding protocol using an antibody that recognizes an extracellular domain of GluA2. The neurons were subsequently pretreated with Nutlin-3 (5 μM for 30 min) prior to NMDA treatment (100 μM for 3 min), followed by agonist washout. Neurons were incubated for an additional 15 min (with or without Nutlin-3) before immunocytochemical analysis of PSD-95 and surface GluA2 by confocal microscopy.\nB. A bar graph depicting the proportion of GluA2 found at the surface of cultured hippocampal neurons upon treatment with or without NMDA, in the presence or absence of Nutlin-3. Results are presented as mean±SEM.\nBrief stimulation of NMDARs induces AMPAR endocytosis in cultured neurons (Colledge et al., 2003; Bhattacharyya et al., 2009). To determine whether Nutlin-3a antagonizes NMDA-induced AMPAR endocytosis, measured as loss of surface AMPAR staining, the surface expression of GluA2 (a subunit of AMPARs in rat hippocampal cultures) was assessed. Surface GluA2 were labeled in vivo by an antibody feeding protocol using an antibody that recognizes an extracellular domain of GluA2 (Ehlers, 2000; Lin et al., 2000; Bhattacharyya et al., 2009). Neurons were pretreated with Nutlin-3a (5 μM for 30 min) prior to NMDA treatment. After brief stimulation with NMDA (100 μM for 3 min) and agonist washout, neurons were incubated for an additional 15 min (with or without Nutlin-3a) before immunocytochemical analysis of PSD-95 and surface GluA2 by confocal microscopy under the same settings. Immunostained puncta were quantified using MetaMorph software (3 neurons from 2 coverslips with approximately 450 puncta analyzed/condition) and the number of GluA2 puncta was normalized to the number of PSD-95 puncta.\nNaïve and NMDA-stimulated conditions were used as controls. […]"}},
  "note": "Where “and” joins values, the source holds several entries; their conditions need not be identical. Equal values may be shown once. Peptide text beside a SMILES is read from it. * marks the point of attachment. Cbz = O=C(OCc1ccccc1)*",
  "data": [
    {"smiles": "CN(C)CCCNc1c2c(=O)n(C)c(=O)nc-2n(C)c2ccccc12", "note": "[HLI-373]", "values": [
      {"measurement": "effect on loss of surface GluA1 induced by Aβ", "setting": "[1]; Aβ 0.3 ng/mL, 2 hours, Nutlin-3 5 μM, HLI373 15 μM", "value": "prevented the loss of surface GluA1 induced by Aβ treatment"},
      {"measurement": "GluA1 surface expression (GluA1 puncta normalized to SV2 puncta and to naïve cultures)", "setting": "[1]; co-treatment with Aβ 0.3 ng/mL, Nutlin 5 μM, HLI373 15 μM", "value": "132.18%±11.33%"},
      {"measurement": "GluA1 surface expression (GluA1 puncta normalized to SV2 puncta and to naïve cultures)", "setting": "[1]; inhibitor alone, without Aβ, Nutlin-3 5 μM, HLI-373 15 μM", "value": "170.95%±5.37%"}
    ]},
    {"smiles": "CC(C)C[C@@H](C=O)NC(=O)[C@H](CC(C)C)NC(=O)[C@H](CC(C)C)NC(=O)OCc1ccccc1", "note": "[MG132] (Cbz-Leu-Leu-Leu-aldehyde)", "values": [
      {"measurement": "effect on PSD-95 degradation", "setting": "PSD-95 degradation", "value": "protect PSD-95 from degradation"}
    ]},
    {"smiles": "CC12CC3CC(C)(C1)CC(N)(C3)C2", "note": "[Memantine, 1-amino-3,5-dimethyl-adamantane]", "values": [
      {"measurement": "AD-like neuropathology in 3×Tg-AD mice", "setting": "3×Tg-AD mice", "value": "reduce AD-like neuropathology"},
      {"measurement": "cognition in 3×Tg-AD mice", "setting": "3×Tg-AD mice", "value": "improve cognition"}
    ]},
    {"smiles": "CN[C@H](CC(=O)O)C(=O)O", "note": "[NMDA, N-Methyl-D-aspartic acid]", "values": [
      {"measurement": "PSD-95 ubiquitination (FK2 immunoblot) versus unstimulated control", "setting": "PSD-95 ubiquitination", "value": "increased ubiquitination at 10 min after NMDA washout"},
      {"measurement": "interaction of β-adaptin with PSD-95 (percentage of p53 knockout unstimulated control)", "setting": "[2]; Mdm2/p53 double knockout slices, 5 min after washout", "value": "45.6%±1.8%"},
      {"measurement": "interaction of β-adaptin with PSD-95 (percentage of p53 knockout unstimulated control)", "setting": "[2]; Mdm2/p53 double knockout slices, 10 min after washout", "value": "99.8%±43.7%"},
      {"measurement": "interaction of β-adaptin with PSD-95 (percentage of p53 knockout unstimulated control)", "setting": "[2]; p53 knockout slices, 5 min after washout, control 100%±14.9%", "value": "209.0%±72.6%"},
      {"measurement": "interaction of β-adaptin with PSD-95 (percentage of p53 knockout unstimulated control)", "setting": "[2]; p53 knockout slices, 10 min after washout", "value": "549.8%±168% and 549.8%±167.7%"},
      {"measurement": "coimmunoprecipitation of β-adaptin with PSD-95 versus unstimulated control", "setting": "[2]; wild-type slices, 10 min after washout", "value": "coimmunoprecipitation of β-adaptin with PSD-95 10 min after NMDA washout"},
      {"measurement": "PSD-95 puncta following NMDA stimulation of naïve cultures", "setting": "[3]", "value": "did not decrease"},
      {"measurement": "GluA2 surface expression (GluA2 puncta normalized to PSD-95 puncta, versus naïve control)", "setting": "[3]; then 15 min, no inhibitor, naïve 100%±9.47%, n=3", "value": "41.95±9.63", "unit": "%"}
    ]}
  ]
}
